In PubChem BioAssay (NCI):
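Results reflect a 48-hour exposure of cells in 96-well plates to compound at five concentrations. At the TGI there is no net growth.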

Legend:
Assay in all cases: NCI-60 cell line screen, 48 h
EKVX NSCLC = system: EKVX NSCLC
SF-295 CNS = system: SF-295 CNS
SK-MEL-2 melanoma = system: SK-MEL-2 melanoma
HOP-62 NSCLC = system: HOP-62 NSCLC
MALME-3M melanoma = system: MALME-3M melanoma
HCT-15 colon = system: HCT-15 colon
HCT-116 colon = system: HCT-116 colon
U251 CNS = system: U251 CNS
MDA-MB-435 = system: MDA-MB-435
SK-MEL-5 melanoma = system: SK-MEL-5 melanoma
HCC-2998 colon = system: HCC-2998 colon
RPMI-8226 leukemia = system: RPMI-8226 leukemia
CCRF-CEM leukemia = system: CCRF-CEM leukemia
NCI/ADR-RES ovarian = system: NCI/ADR-RES ovarian
M14 melanoma = system: M14 melanoma
PC-3 prostate = system: PC-3 prostate
COLO 205 colon = system: COLO 205 colon
SN12C renal = system: SN12C renal
SK-MEL-28 melanoma = system: SK-MEL-28 melanoma
OVCAR-5 ovarian = system: OVCAR-5 ovarian
SR leukemia = system: SR leukemia
K-562 leukemia = system: K-562 leukemia
CAKI-1 renal = system: CAKI-1 renal
MDA-N = system: MDA-N
BT-549 breast = system: BT-549 breast
ACHN renal = system: ACHN renal
UACC-257 melanoma = system: UACC-257 melanoma
MOLT-4 leukemia = system: MOLT-4 leukemia
NCI-H23 lung = system: NCI-H23 lung
OVCAR-3 ovarian = system: OVCAR-3 ovarian
NCI-H460 lung = system: NCI-H460 lung
OVCAR-4 ovarian = system: OVCAR-4 ovarian
A549 NSCLC = system: A549 NSCLC
DU-145 prostate = system: DU-145 prostate
SNB-19 CNS = system: SNB-19 CNS
TK-10 renal = system: TK-10 renal
MCF7 breast = system: MCF7 breast
KM12 colon = system: KM12 colon
OVCAR-8 ovarian = system: OVCAR-8 ovarian
UO-31 renal = system: UO-31 renal
MDA-MB-231 breast = system: MDA-MB-231 breast
LOX IMVI melanoma = system: LOX IMVI melanoma
HL-60(TB) leukemia = system: HL-60(TB) leukemia
SF-539 CNS = system: SF-539 CNS
NCI-H522 lung = system: NCI-H522 lung
786-0 renal = system: 786-0 renal
SW-620 colon = system: SW-620 colon
NCI-H226 lung = system: NCI-H226 lung
SF-268 CNS = system: SF-268 CNS
SNB-75 CNS = system: SNB-75 CNS
HS 578T breast = system: HS 578T breast
IGROV1 ovarian = system: IGROV1 ovarian
HT29 colon = system: HT29 colon
HOP-92 NSCLC = system: HOP-92 NSCLC
RXF 393 renal = system: RXF 393 renal
A498 renal = system: A498 renal
UACC-62 melanoma = system: UACC-62 melanoma
SK-OV-3 ovarian = system: SK-OV-3 ovarian

Measured: TGI

CC(C(=O)O)c1ccc(-n2nnc3c(=O)[nH][nH]c(=O)c32)cc1 (stereo unspecified)
> 100 µM: EKVX NSCLC | SF-295 CNS | SK-MEL-2 melanoma | HOP-62 NSCLC | MALME-3M melanoma | HCT-15 colon | HCT-116 colon | U251 CNS | MDA-MB-435 | SK-MEL-5 melanoma | HCC-2998 colon | RPMI-8226 leukemia | CCRF-CEM leukemia | NCI/ADR-RES ovarian | M14 melanoma | PC-3 prostate | COLO 205 colon | SN12C renal | SK-MEL-28 melanoma | OVCAR-5 ovarian | SR leukemia | K-562 leukemia | CAKI-1 renal | MDA-N | BT-549 breast | ACHN renal | UACC-257 melanoma | MOLT-4 leukemia | NCI-H23 lung | OVCAR-3 ovarian | NCI-H460 lung | OVCAR-4 ovarian | A549 NSCLC | DU-145 prostate | SNB-19 CNS | TK-10 renal | MCF7 breast | KM12 colon | OVCAR-8 ovarian | UO-31 renal | MDA-MB-231 breast | LOX IMVI melanoma | HL-60(TB) leukemia

CC(=O)OCCOCn1c2c(c(=O)[nH]c1=O)CCC2
> 100 µM: SF-539 CNS | EKVX NSCLC | SF-295 CNS | SK-MEL-2 melanoma | HOP-62 NSCLC | NCI-H522 lung | 786-0 renal | MALME-3M melanoma | HCT-15 colon | HCT-116 colon | U251 CNS | MDA-MB-435 | SK-MEL-5 melanoma | HCC-2998 colon | RPMI-8226 leukemia | CCRF-CEM leukemia | M14 melanoma | SW-620 colon | PC-3 prostate | NCI-H226 lung | COLO 205 colon | SN12C renal | SK-MEL-28 melanoma | OVCAR-5 ovarian | SR leukemia | K-562 leukemia | CAKI-1 renal | MDA-N | BT-549 breast | SF-268 CNS | ACHN renal | UACC-257 melanoma | MOLT-4 leukemia | SNB-75 CNS | HS 578T breast | NCI-H23 lung | OVCAR-3 ovarian | IGROV1 ovarian | HT29 colon | OVCAR-4 ovarian | A549 NSCLC | HOP-92 NSCLC | DU-145 prostate | SNB-19 CNS | TK-10 renal | MCF7 breast | KM12 colon | OVCAR-8 ovarian | UO-31 renal | MDA-MB-231 breast | LOX IMVI melanoma | RXF 393 renal | HL-60(TB) leukemia

CC(=O)NC(CC(C)C)C(=O)NC(CC(C)C)C(=O)NC(C=O)CCCN=C(N)N (stereo unspecified)
> 100 µM: SF-539 CNS | EKVX NSCLC | SF-295 CNS | SK-MEL-2 melanoma | HOP-62 NSCLC | NCI-H522 lung | 786-0 renal | MALME-3M melanoma | HCT-15 colon | HCT-116 colon | U251 CNS | MDA-MB-435 | SK-MEL-5 melanoma | HCC-2998 colon | RPMI-8226 leukemia | CCRF-CEM leukemia | A498 renal | NCI/ADR-RES ovarian | M14 melanoma | SW-620 colon | PC-3 prostate | NCI-H226 lung | COLO 205 colon | UACC-62 melanoma | SN12C renal | SK-MEL-28 melanoma | OVCAR-5 ovarian | SR leukemia | K-562 leukemia | CAKI-1 renal | MDA-N | BT-549 breast | SF-268 CNS | ACHN renal | UACC-257 melanoma | MOLT-4 leukemia | SNB-75 CNS | NCI-H23 lung | OVCAR-3 ovarian | NCI-H460 lung | IGROV1 ovarian | HT29 colon | OVCAR-4 ovarian | A549 NSCLC | HOP-92 NSCLC | DU-145 prostate | SNB-19 CNS | TK-10 renal | MCF7 breast | SK-OV-3 ovarian | KM12 colon | OVCAR-8 ovarian | UO-31 renal | MDA-MB-231 breast | LOX IMVI melanoma
